{"source": "patent US6930075B1", "about": "“Fatty acid-based herbicidal composition” (priority 1990, dated 2005)", "assay_in_all_cases": "Greenhouse post-emergence spray, plant damage rating", "assay_type_in_all_cases": "in vivo", "key": {"[1]": {"test_system": "Hypochoeris radicata (false dandelion)", "details": "H. radicata, alone and combined", "protocol": "(§1) Three species of weed, used in each test: Hypochoeris radicata (false dandelion), Sinapis, arvensis (wild mustard), and Avena sativa (oats), were grown in a greenhouse facility in 5.5 cm square pots using a potting soil mix comprising peat, vermiculite, sand, and 4-10-10 fertilizer. Water-soluble 20-20-20 fertilizer was used as a supplement for the plants as required. The plants were selected for use based on uniformity and quality and were potted separately. One plant per pot each of H. radicata (6–10 leaves) and S. arvensis (4–6 leaves) were used. Six to eight plants of A. sativa (2–4 leaves) were used per pot. After spraying with a herbicidal composition (as described below) the pots were arranged in a randomized complete block design in sub-irrigated watering trays. Six to ten replicates (pots) were used per treatment.\n(§2) Herbicidal treatments were applied using a spray chamber fitted with a TeeJet 8006E flat fan nozzle (available from Spraying Systems Co., Wheaton, Ill.), calibrated to spray at a volume of 60 gpa at 40 psi. Treatment solutions were freshly prepared for each experiment. Plant damage was assessed at 10 to 14 days after treatment using a pre-transformed 0–10 rating scale (0 representing no damage, 10 representing plant death) in accordance with the procedure outlined in Statistical Methods in Agricultural Research, Little, T. M. et al, J. Wiley and Sons, 1975, pp. 119–120, 218."}, "[2]": {"test_system": "Sinapis arvensis (wild mustard)", "details": "S. arvensis, alone and combined", "protocol": "as §1, §2"}, "[3]": {"test_system": "Avena sativa (oats)", "details": "A. sativa, alone and combined", "protocol": "as §1, §2"}, "[4]": {"details": "Table 3 set 1: Round-Up 0.1%, Potassium pelargonate 0.1%"}, "[5]": {"details": "Table 3 set 2: Round-Up 0.1%, Potassium pelargonate 0.5%"}, "[6]": {"details": "Table 3 set 3: Round-Up 0.1%, Potassium pelargonate 0.5% (so in the source)"}}}
{"smiles": "CCCCCCCCC(=O)[O-].[K+]", "note": "[Potassium pelargonate]", "values": [{"measurement": "Phytotoxicity (%) Observed", "setting": "[1]; [4]", "result": 0, "unit": "%"}, {"measurement": "Phytotoxicity (%) Observed", "setting": "[1]; [5]", "result": 0, "unit": "%"}, {"measurement": "Phytotoxicity (%) Observed", "setting": "[1]; [6]", "result": 3, "unit": "%"}, {"measurement": "Phytotoxicity (%) Observed", "setting": "[2]; [4]", "result": 0, "unit": "%"}, {"measurement": "Phytotoxicity (%) Observed", "setting": "[2]; [5]", "result": 0, "unit": "%"}, {"measurement": "Phytotoxicity (%) Observed", "setting": "[2]; [6]", "result": 2, "unit": "%"}, {"measurement": "Phytotoxicity (%) Observed", "setting": "[3]; [4]", "result": 6, "unit": "%"}, {"measurement": "Phytotoxicity (%) Observed", "setting": "[3]; [5]", "result": 5, "unit": "%"}, {"measurement": "Phytotoxicity (%) Observed", "setting": "[3]; [6]", "result": 7, "unit": "%"}]}
